{"source": "paper PMC8909834", "about": "“An Orally Bioavailable and Highly Efficacious Inhibitor of CDK9/FLT3 for the Treatment of Acute Myeloid Leukemia” (Cancers, 2022)", "key": {"TAOK1": {"molecular_target": "T1, TAOK1 (Homo sapiens, UniProt Q7L7X3)", "T1 construct": "purchased Reaction Biology Corporation (Kinase HotSpot)", "experiment": "Kinase Hotspot radiolabel assay", "type": "biochemical", "conditions": "read-out: % Residual Activity"}, "MV4-11 tumors": {"tested_on": "MV4-11 tumors", "experiment": "In vivo target engagement (western blot of tumor lysates)", "parameters": "species or system mice", "conditions": "75 and 125 mg/kg orally for 5 days, 4 h post final dose", "protocol": "Western blotting. Western blotting was performed as described previously. Briefly, cells were lysed after incubation with different concentrations of compounds or control (0.1% DMSO) at the indicated times, samples were denatured at 95 °C for 5 min, and proteins having different molecular weights within each sample were separated by electrophoresis (Bio-Rad, Hercules, CA, USA) on polyacrylamide gels (4–20%, Bio-Rad). Resolved proteins were electrophoretically transferred onto a PVDF membrane and blocked by incubating with 10% w/v non-fat powdered milk dissolved in 1 × Tris-buffered saline-tween 20 (TBST) for 1 h at room temperature prior to incubating overnight with primary antibodies at 4 °C with slight shaking. Chemiluminescence was detected with a ChemiDoc^TM gel imaging system after the membranes have been exposed to ECL substrates (GE Healthcare, PA, USA), and the Image Lab software (Bio-Rad) was used for image capture. […] Bands were quantified using ImageJ software (US National Institutes of Health, Bethesda, MD, USA). […]"}, "FLT3": {"molecular_target": "T2, FLT3 (Homo sapiens, UniProt P36888)", "T2 construct": "purchased Reaction Biology Corporation (Kinase HotSpot)", "experiment": "ADP Glo kinase assay", "type": "biochemical", "conditions": "calculated from IC50 using the Cheng-Prusoff equation", "protocol": "(§1) Kinase assay. The ADP Glo^TM kinase assay (Promega, Madison, WI, USA) was used to assess the inhibition by CDDD11-8 of CDKs 1, 2, 4, 6, 7, and 9, as well as the mutant isoforms of FLT3. The assays were performed in accord with the manufacturer’s protocol (Promega) as described previously. Briefly, serial three-fold dilutions of CDDD11-8 were prepared in 100% DMSO from a 2 mM stock solution, followed by 1:40 dilution into Milli-Q water. Subsequently, 1 µL of each sample was incubated with 4 µL of kinase mixture containing a particular CDK enzyme and its substrate, standard kinase buffer [3 mM MgCl2, 50 mM HEPES-NaOH pH 7.5, 3 mM MnCl2, 3 µM Na-orthovanadate, 1 mM dithiothreitol (DTT)], kinase dilution buffer (containing 0.25 mg/mL PEG20,000, 50 mM HEPES-NaOH pH 7.5, 1 mM DTT), and ATP at 37 °C for 30 to 40 min. The final reaction mixture contained 0.5% DMSO in all samples, and the applied kinase concentrations were 1, 1, 10, 40, 20, and 50 nM for CDK1, 2, 4, 6, 7, and 9, respectively. The reaction was stopped by adding ADP-Glo reagent and the mixture was incubated further in the dark at room temperature for 40 min. As a final step, kinase detection reagent was added to each mixture and incubated at room temperature for 30 to 60 min. Luminescence was read using an EnVision® multilabel plate reader (PerkinElmer, Beaconsfield, UK), and half-maximum inhibitory concentrations (IC50) were calculated using a non-linear regression model with a variable slope, plotting log (inhibitor concentration) vs. response using the following formula: Ar%=Bottom+Top−Bottom/1+Inhibitor Concentration/IC50^HillSlope where the relative activity Ar (%) is the signal relative to the controls, IC50 is the half maximum concentration, Hillslope is the steepness of the dose-response curve, Top and Bottom are plateaus reflecting the maximum and minimum in responses on the Y-axis (GraphPad Prism version 7, San Diego, CA, USA). Ki values were calculated from the IC50 using the Cheng−Prusoff equation [32]. Extensive specificity assessment was carried out by Reaction Biology Corporation (Malvern, PA, USA) with 369 kinases using 1 µM CDDD11-8 concentration in a Kinase Hotspot radiolabel assay (for experimental details, please see (Reaction Biology https://www.reactionbiology.com/). Subsequently, Ki values were determined for kinases with greater than 90% inhibition."}, "FLT3-ITD": {"molecular_target": "FLT3-ITD (Homo sapiens, UniProt P36888, ITD)", "experiment": "ADP Glo kinase assay", "type": "biochemical", "conditions": "calculated from IC50 using the Cheng-Prusoff equation", "protocol": "as §1"}, "FLT3-D835Y": {"molecular_target": "FLT3-D835Y (Homo sapiens, UniProt P36888, D835Y)", "experiment": "ADP Glo kinase assay", "type": "biochemical", "conditions": "calculated from IC50 using the Cheng-Prusoff equation", "protocol": "as §1"}, "CDK1B": {"molecular_target": "CDK1B (Homo sapiens, UniProt P06493)", "sequence (P06493 whole entry)": "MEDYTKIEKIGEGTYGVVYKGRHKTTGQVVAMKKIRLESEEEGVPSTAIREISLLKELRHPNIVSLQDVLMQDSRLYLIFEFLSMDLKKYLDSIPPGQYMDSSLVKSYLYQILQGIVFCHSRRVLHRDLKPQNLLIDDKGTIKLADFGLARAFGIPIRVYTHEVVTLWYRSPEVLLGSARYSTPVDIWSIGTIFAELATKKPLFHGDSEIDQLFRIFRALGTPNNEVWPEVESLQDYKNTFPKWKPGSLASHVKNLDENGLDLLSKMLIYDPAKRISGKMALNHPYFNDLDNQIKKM", "sequence (P14635 whole entry partner)": "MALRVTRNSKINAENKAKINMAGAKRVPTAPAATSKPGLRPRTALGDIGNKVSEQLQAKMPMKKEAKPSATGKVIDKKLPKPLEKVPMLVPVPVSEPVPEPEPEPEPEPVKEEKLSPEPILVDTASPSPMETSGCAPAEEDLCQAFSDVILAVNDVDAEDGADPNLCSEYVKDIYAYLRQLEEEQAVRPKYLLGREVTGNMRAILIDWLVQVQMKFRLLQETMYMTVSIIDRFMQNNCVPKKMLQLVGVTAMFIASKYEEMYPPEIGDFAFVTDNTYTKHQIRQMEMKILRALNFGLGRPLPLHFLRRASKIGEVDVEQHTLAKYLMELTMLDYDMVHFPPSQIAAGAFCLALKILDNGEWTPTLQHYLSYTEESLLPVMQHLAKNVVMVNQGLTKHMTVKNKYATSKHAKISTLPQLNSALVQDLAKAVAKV", "experiment": "ADP Glo kinase assay", "type": "biochemical", "conditions": "calculated from IC50 using the Cheng-Prusoff equation", "protocol": "as §1"}, "CDK4D1": {"molecular_target": "CDK4D1 (Homo sapiens, UniProt P11802)", "sequence (P11802 whole entry)": "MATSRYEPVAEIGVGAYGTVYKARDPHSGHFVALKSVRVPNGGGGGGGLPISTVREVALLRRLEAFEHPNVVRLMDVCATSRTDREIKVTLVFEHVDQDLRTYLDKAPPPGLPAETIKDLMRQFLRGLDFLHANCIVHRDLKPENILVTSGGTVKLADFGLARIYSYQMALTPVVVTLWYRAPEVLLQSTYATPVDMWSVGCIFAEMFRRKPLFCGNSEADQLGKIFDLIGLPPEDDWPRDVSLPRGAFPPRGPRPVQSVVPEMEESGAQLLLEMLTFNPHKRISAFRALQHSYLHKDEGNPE", "sequence (P24385 whole entry partner)": "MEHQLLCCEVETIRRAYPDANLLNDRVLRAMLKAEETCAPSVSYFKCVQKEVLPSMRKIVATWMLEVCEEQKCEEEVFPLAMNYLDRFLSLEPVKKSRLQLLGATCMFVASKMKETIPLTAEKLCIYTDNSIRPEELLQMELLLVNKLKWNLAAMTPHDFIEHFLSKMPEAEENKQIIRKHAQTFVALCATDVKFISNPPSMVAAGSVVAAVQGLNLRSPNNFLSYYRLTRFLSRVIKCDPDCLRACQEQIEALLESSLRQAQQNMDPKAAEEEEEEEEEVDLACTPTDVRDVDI", "experiment": "ADP Glo kinase assay", "type": "biochemical", "conditions": "calculated from IC50 using the Cheng-Prusoff equation", "protocol": "as §1"}, "CDK6D3": {"molecular_target": "CDK6D3 (Homo sapiens, UniProt Q00534)", "sequence (Q00534 whole entry)": "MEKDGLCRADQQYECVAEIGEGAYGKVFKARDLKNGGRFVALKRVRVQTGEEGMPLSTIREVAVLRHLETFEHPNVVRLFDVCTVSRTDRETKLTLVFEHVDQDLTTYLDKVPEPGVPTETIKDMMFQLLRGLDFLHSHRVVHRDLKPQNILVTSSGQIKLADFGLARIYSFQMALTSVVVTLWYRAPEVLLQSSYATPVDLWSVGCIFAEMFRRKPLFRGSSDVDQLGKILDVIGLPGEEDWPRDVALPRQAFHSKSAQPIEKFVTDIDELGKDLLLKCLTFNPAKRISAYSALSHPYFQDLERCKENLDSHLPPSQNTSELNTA", "sequence (P30281 whole entry partner)": "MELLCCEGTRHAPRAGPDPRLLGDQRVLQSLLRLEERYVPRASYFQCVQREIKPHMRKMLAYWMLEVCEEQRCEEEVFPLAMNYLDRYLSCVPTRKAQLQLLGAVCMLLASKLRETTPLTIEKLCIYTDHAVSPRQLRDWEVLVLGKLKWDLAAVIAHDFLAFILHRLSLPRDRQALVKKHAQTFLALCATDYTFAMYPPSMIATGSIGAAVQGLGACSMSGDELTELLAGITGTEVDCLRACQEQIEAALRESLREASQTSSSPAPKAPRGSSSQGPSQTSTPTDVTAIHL", "experiment": "ADP Glo kinase assay", "type": "biochemical", "conditions": "calculated from IC50 using the Cheng-Prusoff equation", "protocol": "as §1"}, "[1]": {"experiment": "Aqueous solubility by turbidimetric method", "type": "physicochemical", "conditions": "aqueous medium (not further specified), kinetic from dmso stock"}}, "data": [{"smiles": "Cc1cnc(N[C@H]2CC[C@H](N)CC2)nc1-c1cnc2ccc(-c3ccccc3)cn12", "note": "[CDDD11-8]", "values": [{"measurement": "remaining activity at 1 µM", "setting": "TAOK1", "result": 45.5, "unit": "%"}, {"measurement": "level of MCL1 in tumors", "setting": "MV4-11 tumors", "result": "greatly reduced"}, {"measurement": "phosphorylation of FLT3 at Tyr591 and STAT5 at Tyr 694 in tumors", "setting": "MV4-11 tumors", "result": "reduced"}, {"measurement": "phosphorylation of RNAPII at Ser2 and Ser5 in tumors", "setting": "MV4-11 tumors", "result": "potently inhibited"}, {"measurement": "Ki", "setting": "FLT3", "result": 46, "unit": "nM"}, {"measurement": "Ki", "setting": "FLT3-ITD", "result": 13, "unit": "nM"}, {"measurement": "Ki", "setting": "FLT3-D835Y", "result": 7, "unit": "nM"}, {"measurement": "Ki", "setting": "CDK1B", "result": "> 1000", "unit": "nM"}, {"measurement": "Ki", "setting": "CDK4D1", "result": "> 1000", "unit": "nM"}, {"measurement": "Ki", "setting": "CDK6D3", "result": "> 1000", "unit": "nM"}, {"measurement": "solubility", "setting": "[1]", "result": "> 100", "unit": "µM"}]}]}
